Measured values as given in PMC10840179, “Chemical and biological characterization of Melaleuca subulata (Cheel) Craven leaves’ volatile constituents supported by chemometric analysis and molecular docking” (BMC Complementary Medicine and Therapies, 2024).
Converted amounts (≈) assume the structure as drawn.

Molecular target: T1, collagenase
T1 construct: gene colG; docking used another collagenase (printed PDB 465C / 456C)
Assay: FALGPA hydrolysis, ninhydrin, absorbance at […] nm
Assay type: biochemical
Settings: FALGPA substrate, 50 mM tricine, 37 °C, 20 min preincubation; metal chelator

Q: For O=C(O)CN(CCN(CC(=O)O)CC(=O)O)CC(=O)O [EDTA], which “IC50 ± SD (% inhibition ± SD) / Anti-collagenase” value is on record?
A: 315.12 ± 2.21 µg/mL (≈ 1080 µM)
